The record followed here is US8383853B2, “Method for preparing 2,6-diethyl-4-methylphenylacetic acid” (Bayer Cropscience AG, priority 2004, dated 2013).

What all share (type): in vivo
Data set [1] has as its system Summer barley. The experiment in a line: Container trials with cereal, post-emergence, without or with safener. The settings on record: crop damage. The procedure: (§1) Seeds of monocotyledonous and dicotyledonous weed and crop plants are placed into sandy loam in wood fiber pots or in plastic pots, covered with soil and cultivated in a greenhouse, during the vegetation period also outdoors outside of the greenhouse, under good growth conditions. Two-three weeks after sowing, the test plants are treated at the one- to three-leaf stage. The test compounds, formulated as wettable powders (WP) or liquid (EC) are, in various dosages with a water application rate of […] (converted), with wetting agent (0.2 to 0.3%) added, sprayed onto the plants and the surface of the soil. Three-four weeks after the treatment of the test plants, the effect of the preparations is rated visually in comparison to untreated controls (herbicidal effect in percent (%): 100% effect=the plants have died, 0% effect=like control plants).
(§2) If it is additionally to be tested as to whether safeners can improve the plant compatibility of test substances in the case of crop plants, the following options are used for applying the safener: • seeds of the crop plants are, before sowing, dressed with the safener substance (the amount of safener stated in percent, based on the weight of the seed) • before the application of the test substances, the crop plants are sprayed with the safener at a certain application rate per hectare (usually 1 day before the application of the test substances) • the safener is applied together with the test substance as a tank mix (the amount of safener is stated in g/ha or as a ratio, based on the herbicide).
(§3) By comparing the effect of the test substances on crop plants without or with safener treatment, it is possible to assess the effect of the safener substance.

Data set [2] concerns Summer wheat. The data set is described as above. The note with it: crop damage, 28 days after application. On the procedure: as §1, §2, §3
Data set [3] relates to Avena fatua. The experiment in a line: Herbicidal post-emergence action. The note with it: greenhouse, 80 g of a.i./ha. The procedure:
(§4) Seeds of monocotyledonous and dicotyledonous weed and crop plants are placed into sandy loam in wood fiber pots, covered with soil and cultivated in a greenhouse under good growth conditions. Two-three weeks after sowing, the test plants are treated at the one-leaf stage. The test compounds, formulated as wettable powders (WP), are then, in various dosages with a water application rate of 600 l/ha (converted), with 0.2% of wetting agent added, sprayed onto the green parts of the plants. After the test plants have been kept in the greenhouse under optimum growth conditions for about 3 weeks, the effect of the preparations is rated visually in comparison to untreated controls (herbicidal effect in percent (%): 100% effect=the plants have died, 0% effect=like control plants).

Data set [4] relates to Alopecurus. The experiment in a line: Herbicidal post-emergence action. The note with it: greenhouse, 80 g of a.i./ha. The procedure:
as §4

Data set [5] relates to Veronica. Briefly: Herbicidal post-emergence action. The note with it: greenhouse, 80 g of a.i./ha. The procedure: as §4
The subject of data set [6] is Lolium multiflorum. The experiment in a line: Herbicidal post-emergence action. The settings on record: greenhouse, 80 g of a.i./ha. On the procedure: as §4
Data set [7] deals with Setaria viridis. The experiment in a line: Herbicidal post-emergence action. The settings on record: greenhouse, 80 g of a.i./ha. The procedure: as §4
Data set [8] relates to Meloidogyne incognita. Briefly: Meloidogyne test (spray treatment). The settings on record: 20 ppm of a.i., after 14 d. The procedure:
To produce a suitable preparation of active compound, 1 part by weight of active compound is mixed with the stated amounts of solvent, and the concentrate is diluted with water to the desired concentration.
Vessels are filled with sand, solution of active compound, Meloidogyne incognita egg/larva suspension and lettuce seeds. The lettuce seeds germinate and the plants develop. On the roots, galls are formed.
After the desired period of time, the nematicidal activity is determined in % by the formation of galls. 100% means that no galls have been found; 0% means that the number of galls on the treated plants corresponds to that of the untreated control.

For data set [9], the system named is Avena fatua. Briefly: Herbicidal pre-emergence action. The settings on record: greenhouse. An excerpt: (§5) Seeds of monocotyledonous and dicotyledonous weed and crop plants are placed in sandy loam in wood fiber pots and covered with soil. The test compounds, formulated in the form of wettable powders (WP), are then, as an aqueous suspension with a water application rate of 600 l/ha (converted), with 0.2% of wetting agent added, applied to the surface of the covering soil in various dosages.
(§6) After the treatment, the pots are placed in a greenhouse and kept under good growth conditions for the test plants. The visual assessment of the emergence damage on the test plants is carried out after a trial period of 3 weeks by comparison with untreated controls (herbicidal effect in percent (%): 100% effect=the plants have died, 0% effect=like control plants).

Data set [10] has as its system Alopecurus. Briefly: Herbicidal pre-emergence action. The note with it: greenhouse.
Description: as §5, §6

Data set [11] deals with Veronica. The experiment in a line: Herbicidal pre-emergence action. The note with it: greenhouse, 320 g of a.i./ha.
Description: as §5, §6

The subject of data set [12] is Lolium multiflorum. Briefly: Herbicidal pre-emergence action. The note with it: greenhouse.
Description: as §5, §6

Data set [13] relates to Setaria viridis. Briefly: Herbicidal pre-emergence action. The note with it: greenhouse.
Description: as §5, §6

Data set [14] has as its system Echinochloa crus-galli. Briefly: Herbicidal post-emergence action. The note with it: greenhouse, 80 g of a.i./ha. The procedure:
as §4

Data set [15] relates to Echinochloa. The experiment in a line: Herbicidal pre-emergence action. The settings on record: greenhouse, 80 g of a.i./ha.
Description: as §5, §6

Setting [16] is: greenhouse, post-emergence, 12.5 g of a.i./ha.
Setting [17] is: greenhouse, post-emergence, 25 g of a.i./ha.

Some results are limits rather than exact numbers.

Take `CCOC1CCC2(CC1)NC(=O)C(c1c(CC)cc(C)cc1CC)=C2O` (single isomer, unassigned) [I-a-2]: the “Summer barley observed (%)” value in [1] (28 days after application, 25 g of a.i./ha) was determined as 25%; in [1] (28 days after application, 50 g of a.i./ha), 50%. The figures for the “Summer wheat observed (%)” value in [2] (12.5 g of a.i./ha) and in [2] (25 g of a.i./ha) were 40% and 80%, respectively.

Consider `CCOCC(=O)OC1=C(c2c(CC)cc(C)cc2CC)C(=O)NC12CCC(OC)CC2` (single isomer, unassigned) [I-b-2], for which the “herbicidal effect, Avena fatua” value came to 100% in data set [3] and 90% in data set [9] (320 g of a.i./ha). In addition, the “herbicidal effect, Alopecurus” value in data set [4] and in data set [10] (320 g of a.i./ha) was 100% throughout. The “herbicidal effect, Veronica” value is listed as 70% in data set [5] and 100% in [11]. Besides, the “herbicidal effect, Lolium” value in data set [6] and in [12] (320 g of a.i./ha) was 100% in each case. Moreover, the “herbicidal effect, Setaria” value in data set [7] and in data set [13] (320 g of a.i./ha) was 100% each time. Further, the “nematicidal activity in % by the formation of galls” value in data set [8] is on record as at least 70%. Moreover, in [2] (12.5 g of a.i./ha), the “Summer wheat observed (%)” value is given as 95%.

With `CCOC(=O)OC1=C(c2c(CC)cc(C)cc2CC)C(=O)NC12CCC(OC)CC2` (single isomer, unassigned) [I-c-2], the “herbicidal effect, Alopecurus” value in data set [4] is reported as 100%; in [10] (80 g of a.i./ha), 90%. In data set [5], the “herbicidal effect, Veronica” value was found to be 80%. Further, the “herbicidal effect, Lolium” value in data set [6] and in data set [12] (80 g of a.i./ha) was 100% in each case. The “herbicidal effect, Setaria” value in data set [7] was determined as 100%; in data set [13] (80 g of a.i./ha), 90%. In addition, the “herbicidal effect, Echinochloa” value in data set [14] and in data set [15] was 100% throughout.

Take `CCc1cc(C)cc(CC)c1C1=C(O)C2(CCC(OC)CC2)NC1=O` (stereo not shown) [I-a-1]: the “Summer barley observed (%)” value in data set [1] (setting [16]) amounted to 20%; in data set [1] (setting [17]), 60%; in [1] (greenhouse, post-emergence, 50 g of a.i./ha), 93%.

`CCc1cc(C)cc(CC)c1C1=C(OC(=O)COC)C2(CCC(OC)CC2)NC1=O` (stereo not shown) [I-b-1]: the “herbicidal effect, Avena fatua” value in data set [3] was determined as 100%. In addition, in data set [4], the “herbicidal effect, Alopecurus” value worked out at 100%. For the same molecule, the “herbicidal effect, Veronica” value in [5] worked out at 80%. The “herbicidal effect, Lolium” value in data set [6] came to 100%. For the same molecule, the “herbicidal effect, Setaria” value in data set [7] came to 100%. Further, the “Summer wheat observed (%)” value in [2] (25 g of a.i./ha) turned out to be 90%.

For the molecule `C=CCOC(=O)OC1=C(c2c(CC)cc(C)cc2CC)C(=O)NC12CCC(OC)CC2` (stereo not shown) [I-c-1], the entries for the “herbicidal effect, Avena fatua” value in data set [3] and in data set [9] (80 g of a.i./ha) were 90% and 60%, respectively. For the same molecule, the “herbicidal effect, Alopecurus” value in data set [4] and in data set [10] (80 g of a.i./ha) was 100% each time. For the same molecule, the “herbicidal effect, Lolium” value in [6] and in data set [12] (80 g of a.i./ha) was 100% throughout. Further, the “herbicidal effect, Setaria” value in data set [7] and in data set [13] (80 g of a.i./ha) was 100% throughout. In addition, the “herbicidal effect, Echinochloa” value in [14] and in [15] was 100% throughout. The figures for the “Summer barley observed (%)” value in data set [1] (setting [16]) and in data set [1] (setting [17]) were 35% and 60%, respectively.
